According to US20260356819A1, “OXOISOINDOLINYL-SUBSTITUTED […] DERIVATIVE AND USE THEREOF” (GLUETACS THERAPEUTICS (SHANGHAI) CO., LTD., priority 2023, published 2026):

Tests used:
Format in all cases: cell-based
Details in all cases: compounds at 50 nM and 500 nM
[1] = target: T1, IKZF1 (Homo sapiens, UniProt Q13422+Q96SW2); assay: Western blot degradation of IKZF1 in hPBMCs (24 h)
T1 construct: The supernatant was aspirated as the extracted total cell protein; endogenous in cells; host or cells: human peripheral blood mononuclear cells (hPBMCs)
Protocol: (§1) Conventional Western blot assay was performed to evaluate the effects of the compounds of the present disclosure on the expression of target proteins in cells. • (1) Cell Seeding and Protein Harvesting: Human peripheral blood mononuclear cells (hPBMCs) at a density of 1×10^6 cells/mL were thawed according to the PBMC Recovery Protocol (Milecell Biotechnologies Inc, Shanghai). The cells were then treated with the compounds of the present disclosure (including the compounds listed in Table 1, and the Examples 1-498 compounds) at concentrations of 50 nM and 500 nM. Controls included a negative control (DMSO) and a positive control (the commercial immunomodulatory drug lenalidomide), both processed following the identical experimental protocol as the compounds of the present disclosure. After 24 hours of compounds treatment, cells were harvested and lysed in RIPA protein lysate containing protease inhibitors on ice for 30 min, followed by centrifugation. The supernatant was aspirated as the extracted total cell protein. The protein concentration of the supernatant was determined using the conventional BCA (Bicinchoninic Acid) assay. • (2) To the collected supernatant, 5×SDS sample loading buffer was added, followed by denaturation at 95 °C for 5 minutes. The denatured samples were then separated by SDS-PAGE electrophoresis on a polyacrylamide gel. Proteins were transferred to a nitrocellulose membrane (0.45 μm NC membrane), blocked with blocking buffer at room temperature for 1 hour, and subjected to antibody incubation and development procedures according to the antibody manufacturer's instructions (Cell Signaling Technology).
(§2) Half-Maximal Degradation Concentration value (the drug concentration required for degrading proteins by 50%, abbreviated as DC50) reads method: comparing the grayscale values of Western blot bands from drug-treated samples with those from blank DMSO-treated controls, and identifying the drug concentration range at which the grayscale value is half that of the DMSO-treated control bands.
(§3) DC50 values can be calculated using ImageJ software to measure grayscale values of Western blot bands from drug-treated samples. The concentration-response curve is fitted to estimate the drug concentration corresponding to half the grayscale value.
(§4) Target protein remaining (%) refers to the percentage of target protein remaining in cells after treatment with protein degrader compounds.
(§5) Calculation method for target protein remaining (%): Use ImageJ software to measure grayscale values of Western blot bands from drug (protein degrader)-treated samples. The grayscale value of drug-treated bands is divided by that of internal control protein bands, and the resulting quotient is normalized to obtain the relative percentage of remaining target protein after protein degrader treatment.
(§6) Target protein degradation rate (%)=1−target protein remaining (%).

[2] = target: T2, IKZF3 (Homo sapiens, UniProt Q96SW2+Q9UKT9); assay: Western blot degradation of IKZF3 in hPBMCs (24 h)
T2 construct: The supernatant was aspirated as the extracted total cell protein; endogenous in cells; host or cells: human peripheral blood mononuclear cells (hPBMCs)
Protocol: as §1, §2, §3, §4, §5, §6

[3] = target: T3, CK1α (Homo sapiens, UniProt P48729+Q96SW2); assay: Western blot degradation of CK1α in hPBMCs (24 h)
T3 construct: The supernatant was aspirated as the extracted total cell protein; endogenous in cells; host or cells: human peripheral blood mononuclear cells (hPBMCs)
Protocol: as §1, §2, §3, §4, §5, §6

[4] = target: T4, WEE1 (Homo sapiens, UniProt P30291+Q96SW2); assay: Western blot degradation of WEE1 in hPBMCs (24 h)
T4 construct: The supernatant was aspirated as the extracted total cell protein; endogenous in cells; host or cells: human peripheral blood mononuclear cells (hPBMCs)
Protocol: as §1, §2, §3, §4, §5, §6

[5] = target: T5, IKZF2 (Homo sapiens, UniProt Q96SW2+Q9UKS7); assay: Western blot degradation of IKZF2 in hPBMCs (24 h)
T5 construct: The supernatant was aspirated as the extracted total cell protein; endogenous in cells; host or cells: human peripheral blood mononuclear cells (hPBMCs)
Protocol: as §1, §2, §3, §4, §5, §6

[6] = target: T6, GSPT1 (Homo sapiens, UniProt P15170+Q96SW2); assay: Western blot degradation of GSPT1 in hPBMCs (24 h)
T6 construct: The supernatant was aspirated as the extracted total cell protein; endogenous in cells; host or cells: human peripheral blood mononuclear cells (hPBMCs)
Protocol: as §1, §2, §3, §4, §5, §6

T3 sequence (P48729 whole entry): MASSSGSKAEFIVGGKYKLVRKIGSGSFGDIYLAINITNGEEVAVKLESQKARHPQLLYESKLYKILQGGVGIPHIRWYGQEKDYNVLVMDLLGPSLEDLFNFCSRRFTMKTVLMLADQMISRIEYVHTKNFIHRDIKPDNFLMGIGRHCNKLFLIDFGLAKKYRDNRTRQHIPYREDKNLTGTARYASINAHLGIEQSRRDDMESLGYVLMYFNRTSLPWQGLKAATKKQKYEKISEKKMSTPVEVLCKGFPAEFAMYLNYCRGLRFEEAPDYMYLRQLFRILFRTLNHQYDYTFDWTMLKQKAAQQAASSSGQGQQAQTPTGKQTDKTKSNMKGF
T3 sequence (Q96SW2 whole entry): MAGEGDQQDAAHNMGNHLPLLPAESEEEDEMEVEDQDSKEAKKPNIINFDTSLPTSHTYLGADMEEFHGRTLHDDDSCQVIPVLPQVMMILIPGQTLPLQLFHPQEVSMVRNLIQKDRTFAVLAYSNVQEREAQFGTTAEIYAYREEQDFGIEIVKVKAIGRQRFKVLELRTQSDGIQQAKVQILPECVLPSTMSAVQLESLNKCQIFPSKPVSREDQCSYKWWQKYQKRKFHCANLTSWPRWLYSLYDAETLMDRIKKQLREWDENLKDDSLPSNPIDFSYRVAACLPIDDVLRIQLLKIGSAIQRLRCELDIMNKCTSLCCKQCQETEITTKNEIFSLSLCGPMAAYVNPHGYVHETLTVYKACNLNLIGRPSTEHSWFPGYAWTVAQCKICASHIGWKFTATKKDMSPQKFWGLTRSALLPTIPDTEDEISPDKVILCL
T3 sequence (Q16531 whole entry partner): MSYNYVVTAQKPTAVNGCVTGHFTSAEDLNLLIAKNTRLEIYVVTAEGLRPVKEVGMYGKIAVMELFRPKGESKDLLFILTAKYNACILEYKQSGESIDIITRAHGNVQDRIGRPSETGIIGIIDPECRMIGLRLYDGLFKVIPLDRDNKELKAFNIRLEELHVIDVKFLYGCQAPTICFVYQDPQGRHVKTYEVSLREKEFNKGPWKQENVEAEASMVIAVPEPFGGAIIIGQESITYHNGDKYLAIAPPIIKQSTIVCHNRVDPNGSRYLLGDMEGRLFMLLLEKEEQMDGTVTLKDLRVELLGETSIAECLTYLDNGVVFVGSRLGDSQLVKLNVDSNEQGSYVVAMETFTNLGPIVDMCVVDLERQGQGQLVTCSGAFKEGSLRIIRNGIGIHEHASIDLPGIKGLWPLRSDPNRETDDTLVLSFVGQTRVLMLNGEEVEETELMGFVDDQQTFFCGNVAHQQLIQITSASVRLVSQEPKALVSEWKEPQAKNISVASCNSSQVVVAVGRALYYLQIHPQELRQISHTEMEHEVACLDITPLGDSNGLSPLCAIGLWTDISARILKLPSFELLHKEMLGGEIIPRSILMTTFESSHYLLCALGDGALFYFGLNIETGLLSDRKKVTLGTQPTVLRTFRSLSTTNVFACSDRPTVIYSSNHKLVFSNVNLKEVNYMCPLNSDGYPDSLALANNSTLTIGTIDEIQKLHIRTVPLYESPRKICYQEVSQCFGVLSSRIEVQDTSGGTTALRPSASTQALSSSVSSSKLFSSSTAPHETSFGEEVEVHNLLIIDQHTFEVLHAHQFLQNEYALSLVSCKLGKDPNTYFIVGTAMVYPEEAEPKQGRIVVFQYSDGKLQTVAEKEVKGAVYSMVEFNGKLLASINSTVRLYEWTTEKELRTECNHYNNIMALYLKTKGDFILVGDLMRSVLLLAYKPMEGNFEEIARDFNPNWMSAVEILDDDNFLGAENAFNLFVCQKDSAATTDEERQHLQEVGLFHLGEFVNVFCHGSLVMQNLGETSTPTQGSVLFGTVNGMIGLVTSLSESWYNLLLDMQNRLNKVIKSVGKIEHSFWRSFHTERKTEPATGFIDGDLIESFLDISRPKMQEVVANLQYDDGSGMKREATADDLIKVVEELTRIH
T6 sequence (P15170 whole entry): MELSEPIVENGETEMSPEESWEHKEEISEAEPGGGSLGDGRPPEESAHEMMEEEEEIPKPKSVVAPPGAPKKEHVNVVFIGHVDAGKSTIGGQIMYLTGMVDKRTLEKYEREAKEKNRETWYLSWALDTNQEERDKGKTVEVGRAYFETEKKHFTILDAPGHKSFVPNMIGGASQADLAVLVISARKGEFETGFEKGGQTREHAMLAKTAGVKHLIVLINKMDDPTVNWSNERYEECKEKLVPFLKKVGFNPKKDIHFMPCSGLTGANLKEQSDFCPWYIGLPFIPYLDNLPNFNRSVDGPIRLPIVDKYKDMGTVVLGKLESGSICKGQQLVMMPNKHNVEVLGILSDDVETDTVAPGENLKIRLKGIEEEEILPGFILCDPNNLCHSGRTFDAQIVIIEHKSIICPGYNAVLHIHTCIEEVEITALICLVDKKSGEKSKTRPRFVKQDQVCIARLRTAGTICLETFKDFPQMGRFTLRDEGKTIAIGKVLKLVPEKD
T6 sequence (Q96SW2 whole entry): as the sequence (Q96SW2 whole entry) above
T6 sequence (Q16531 whole entry partner): as the sequence (Q16531 whole entry partner) above
T1 sequence (Q13422 whole entry): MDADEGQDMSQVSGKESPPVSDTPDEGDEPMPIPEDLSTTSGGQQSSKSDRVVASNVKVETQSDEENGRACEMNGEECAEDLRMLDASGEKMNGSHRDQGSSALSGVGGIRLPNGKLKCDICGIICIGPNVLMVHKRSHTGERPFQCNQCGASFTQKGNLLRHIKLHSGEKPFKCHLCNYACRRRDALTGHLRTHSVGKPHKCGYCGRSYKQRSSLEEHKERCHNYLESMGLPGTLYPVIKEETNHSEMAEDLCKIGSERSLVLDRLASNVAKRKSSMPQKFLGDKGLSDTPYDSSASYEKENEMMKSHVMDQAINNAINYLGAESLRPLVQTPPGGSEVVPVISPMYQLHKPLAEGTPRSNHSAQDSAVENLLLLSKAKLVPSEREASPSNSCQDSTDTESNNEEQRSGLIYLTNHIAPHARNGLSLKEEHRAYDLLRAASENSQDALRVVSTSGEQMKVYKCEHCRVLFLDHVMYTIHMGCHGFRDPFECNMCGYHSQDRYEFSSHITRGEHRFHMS
T1 sequence (Q96SW2 whole entry): as the sequence (Q96SW2 whole entry) above
T1 sequence (Q16531 whole entry partner): as the sequence (Q16531 whole entry partner) above
T5 sequence (Q9UKS7 whole entry): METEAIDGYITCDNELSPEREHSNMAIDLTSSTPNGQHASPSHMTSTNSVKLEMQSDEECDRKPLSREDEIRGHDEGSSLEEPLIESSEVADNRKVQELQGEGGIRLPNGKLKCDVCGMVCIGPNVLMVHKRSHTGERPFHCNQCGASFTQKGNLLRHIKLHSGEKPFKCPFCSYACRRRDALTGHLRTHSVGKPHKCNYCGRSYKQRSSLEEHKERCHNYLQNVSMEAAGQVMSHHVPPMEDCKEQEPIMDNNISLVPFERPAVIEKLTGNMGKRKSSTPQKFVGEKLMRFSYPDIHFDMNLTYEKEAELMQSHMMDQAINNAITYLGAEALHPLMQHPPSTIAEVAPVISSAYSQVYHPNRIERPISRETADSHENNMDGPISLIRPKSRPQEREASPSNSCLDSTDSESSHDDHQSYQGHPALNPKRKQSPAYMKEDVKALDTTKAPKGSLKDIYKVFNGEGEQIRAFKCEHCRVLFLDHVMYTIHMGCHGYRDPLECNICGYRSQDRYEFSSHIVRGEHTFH
T5 sequence (Q96SW2 whole entry): as the sequence (Q96SW2 whole entry) above
T5 sequence (Q16531 whole entry partner): as the sequence (Q16531 whole entry partner) above
T4 sequence (P30291 whole entry): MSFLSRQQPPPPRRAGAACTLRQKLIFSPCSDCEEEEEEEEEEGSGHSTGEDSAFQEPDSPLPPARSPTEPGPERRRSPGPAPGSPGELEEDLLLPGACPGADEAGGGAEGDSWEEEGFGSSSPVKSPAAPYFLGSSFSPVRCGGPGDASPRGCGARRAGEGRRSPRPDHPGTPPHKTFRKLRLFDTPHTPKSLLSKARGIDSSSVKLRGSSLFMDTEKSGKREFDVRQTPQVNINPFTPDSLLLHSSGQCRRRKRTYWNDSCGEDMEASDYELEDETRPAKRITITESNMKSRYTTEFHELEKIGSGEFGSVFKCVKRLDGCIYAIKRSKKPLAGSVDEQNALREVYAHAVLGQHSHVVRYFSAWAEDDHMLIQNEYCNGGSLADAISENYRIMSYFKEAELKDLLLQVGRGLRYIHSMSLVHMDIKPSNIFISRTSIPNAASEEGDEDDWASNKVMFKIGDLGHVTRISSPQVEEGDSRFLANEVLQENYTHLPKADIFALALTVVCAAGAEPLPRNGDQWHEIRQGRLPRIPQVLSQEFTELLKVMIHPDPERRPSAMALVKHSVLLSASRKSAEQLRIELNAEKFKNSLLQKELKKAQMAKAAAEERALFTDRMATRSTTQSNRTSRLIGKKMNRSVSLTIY
T4 sequence (Q96SW2 whole entry): as the sequence (Q96SW2 whole entry) above
T4 sequence (Q16531 whole entry partner): as the sequence (Q16531 whole entry partner) above

Structure (SMILES)	IKZF1 substrate protein remaining % [1]	IKZF3 substrate protein remaining % [2]	CK1α substrate protein remaining % [3]	WEE1 substrate protein remaining % [4]	IKZF2 substrate protein remaining % [5]	GSPT1 substrate protein remaining % [6]
O=C1CCN(N2Cc3cc(CN4CCN(c5ncccc5C(F)(F)F)CC4)ccc3C2=O)C(=O)N1 [GT-05174, 1-(1-oxo-5-((4-(3-(trifluoromethyl)pyridin-2-yl)piperazin-1-yl)methyl)isoindolin-2-yl)dihydropyrimidine-2,4(1H,3H)-dione]	B (80%< substrate protein remaining % ≤100%)	B (80%< substrate protein remaining % ≤100%)	B (80%< substrate protein remaining % ≤100%)			
O=C1CCN(N2Cc3cc(CN4CCN(c5cccc(C(F)(F)F)n5)CC4)ccc3C2=O)C(=O)N1 [GT-05175, 1-(1-oxo-5-((4-(6-(trifluoromethyl)pyridin-2-yl)piperazin-1-yl)methyl)isoindolin-2-yl)dihydropyrimidine-2,4(1H,3H)-dione]	B (80%< substrate protein remaining % ≤100%)			A (0% ≤ substrate protein remaining % ≤80%)	B (80%< substrate protein remaining % ≤100%)	A (0% ≤ substrate protein remaining % ≤80%)
O=C1CCN(N2Cc3cc(CN4CCN(c5ccc(C(F)(F)F)cn5)CC4)ccc3C2=O)C(=O)N1 [GT-05176, 1-(1-oxo-5-((4-(5-(trifluoromethyl)pyridin-2-yl)piperazin-1-yl)methyl)isoindolin-2-yl)dihydropyrimidine-2,4(1H,3H)-dione]	B (80%< substrate protein remaining % ≤100%)		B (80%< substrate protein remaining % ≤100%)		B (80%< substrate protein remaining % ≤100%)	
O=C1CCN(N2C(=O)c3ccc(CN4CCN(c5ccccn5)CC4)cc3C2=O)C(=O)N1 [GT-05351, 2-(2,4-dioxotetrahydropyrimidin-1(2H)-yl)-5-((4-(pyridin-2-yl)piperazin-1-yl)methyl)isoindoline-1,3-dione]	B (80%< substrate protein remaining % ≤100%)	B (80%< substrate protein remaining % ≤100%)	B (80%< substrate protein remaining % ≤100%)		A (0% ≤ substrate protein remaining % ≤80%)	
O=C1CCN(N2C(=O)c3ccc(CN4CCN(c5cccc(Cl)n5)CC4)cc3C2=O)C(=O)N1 [GT-05353, 5-((4-(6-chloropyridin-2-yl)piperazin-1-yl)methyl)-2-(2,4-dioxotetrahydropyrimidin-1(2H)-yl)isoindoline-1,3-dione]	B (80%< substrate protein remaining % ≤100%)	B (80%< substrate protein remaining % ≤100%)	B (80%< substrate protein remaining % ≤100%)		B (80%< substrate protein remaining % ≤100%)	A (0% ≤ substrate protein remaining % ≤80%)
O=C1CCN(N2C(=O)c3ccc(CN4CCN(c5cc(Cl)ccn5)CC4)cc3C2=O)C(=O)N1 [GT-05354, 5-((4-(4-chloropyridin-2-yl)piperazin-1-yl)methyl)-2-(2,4-dioxotetrahydropyrimidin-1(2H)-yl)isoindoline-1,3-dione]	B (80%< substrate protein remaining % ≤100%)		B (80%< substrate protein remaining % ≤100%)			A (0% ≤ substrate protein remaining % ≤80%)
O=C1CCN(N2C(=O)c3ccc(CN4CCN(c5ncccc5F)CC4)cc3C2=O)C(=O)N1 [GT-05355, 2-(2,4-dioxotetrahydropyrimidin-1(2H)-yl)-5-((4-(3-fluoropyridin-2-yl)piperazin-1-yl)methyl)isoindoline-1,3-dione]	B (80%< substrate protein remaining % ≤100%)	B (80%< substrate protein remaining % ≤100%)	B (80%< substrate protein remaining % ≤100%)	B (80%< substrate protein remaining % ≤100%)		A (0% ≤ substrate protein remaining % ≤80%)
O=C1CCN(N2Cc3cc(CN4CCN(c5ncc(Cl)cc5Cl)CC4)ccc3C2=O)C(=O)N1 [GT-05356, 1-(5-((4-(3,5-dichloropyridin-2-yl)piperazin-1-yl)methyl)-1-oxoisoindolin-2-yl)dihydropyrimidine-2,4(1H,3H)-dione]	B (80%< substrate protein remaining % ≤100%)	B (80%< substrate protein remaining % ≤100%)	B (80%< substrate protein remaining % ≤100%)			
O=C1CCN(N2Cc3cc(CN4CCN(c5nccc(F)c5F)CC4)ccc3C2=O)C(=O)N1 [GT-05357, 1-(5-((4-(3,4-difluoropyridin-2-yl)piperazin-1-yl)methyl)-1-oxoisoindolin-2-yl)dihydropyrimidine-2,4(1H,3H)-dione]	B (80%< substrate protein remaining % ≤100%)	B (80%< substrate protein remaining % ≤100%)	B (80%< substrate protein remaining % ≤100%)		B (80%< substrate protein remaining % ≤100%)	
O=C1CCN(N2Cc3cc(CN4CCN(c5nccc(I)c5F)CC4)ccc3C2=O)C(=O)N1 [GT-05406, 1-(5-((4-(3-fluoro-4-iodopyridin-2-yl)piperazin-1-yl)methyl)-1-oxoisoindolin-2-yl)dihydropyrimidine-2,4(1H,3H)-dione]	B (80%< substrate protein remaining % ≤100%)	B (80%< substrate protein remaining % ≤100%)	B (80%< substrate protein remaining % ≤100%)			A (0% ≤ substrate protein remaining % ≤80%)
O=C1CCN(N2Cc3cc(CN4CCN(c5nccc(Cl)c5Br)CC4)ccc3C2=O)C(=O)N1 [GT-05432, 1-(5-((4-(3-bromo-4-chloropyridin-2-yl)piperazin-1-yl)methyl)-1-oxoisoindolin-2-yl)dihydropyrimidine-2,4(1H,3H)-dione]	B (80%< substrate protein remaining % ≤100%)	B (80%< substrate protein remaining % ≤100%)	B (80%< substrate protein remaining % ≤100%)	A (0% ≤ substrate protein remaining % ≤80%)	B (80%< substrate protein remaining % ≤100%)	
O=C1CCN(N2Cc3cc(CN4CCN(c5ncc(C(F)(F)F)cc5Cl)CC4)ccc3C2=O)C(=O)N1 [GT-05433, 1-(5-((4-(3-chloro-5-(trifluoromethyl)pyridin-2-yl)piperazin-1-yl)methyl)-1-oxoisoindolin-2-yl)dihydropyrimidine-2,4(1H,3H)-dione]	B (80%< substrate protein remaining % ≤100%)	B (80%< substrate protein remaining % ≤100%)	B (80%< substrate protein remaining % ≤100%)	A (0% ≤ substrate protein remaining % ≤80%)		A (0% ≤ substrate protein remaining % ≤80%)
O=C1CCN(N2Cc3cc(CN4CCN(c5cccnc5)CC4)ccc3C2=O)C(=O)N1 [GT-05434, 1-(1-oxo-5-((4-(pyridin-3-yl)piperazin-1-yl)methyl)isoindolin-2-yl)dihydropyrimidine-2,4(1H,3H)-dione]	B (80%< substrate protein remaining % ≤100%)	B (80%< substrate protein remaining % ≤100%)		A (0% ≤ substrate protein remaining % ≤80%)		A (0% ≤ substrate protein remaining % ≤80%)
O=C1CCN(N2Cc3cc(CN4CCN(c5ccncc5Br)CC4)ccc3C2=O)C(=O)N1 [GT-05439, 1-(5-((4-(3-bromopyridin-4-yl)piperazin-1-yl)methyl)-1-oxoisoindolin-2-yl)dihydropyrimidine-2,4(1H,3H)-dione]	B (80%< substrate protein remaining % ≤100%)			A (0% ≤ substrate protein remaining % ≤80%)	B (80%< substrate protein remaining % ≤100%)	
